We go through 1 compound from publication PMC3977580 (Biochemistry, 2014).

The Kd is the constant that tells how readily two partners part at equilibrium.

The target in this experiment is T1, SaMTAN (5′-methylthioadenosine/S-adenosylhomocysteine nucleosidase) (Staphylococcus aureus, UniProt Q99TQ0).
T1 sequence (Q99TQ0 1-228): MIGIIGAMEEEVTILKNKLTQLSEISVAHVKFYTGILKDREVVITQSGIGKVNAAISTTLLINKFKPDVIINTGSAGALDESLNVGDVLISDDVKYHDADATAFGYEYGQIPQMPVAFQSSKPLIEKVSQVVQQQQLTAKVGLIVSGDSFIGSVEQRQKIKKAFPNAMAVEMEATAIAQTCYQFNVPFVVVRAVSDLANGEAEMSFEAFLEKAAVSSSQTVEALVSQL
Put plainly: ITC. In kind it is binding.

Each structure is given as a SMILES string.

As for `CSC[C@H]1CN(Cc2c[nH]c3c(N)ncnc23)C[C@@H]1O` [MT-DADMe-ImmA], the Kd was found to be 9 nM. This counts as single-digit nanomolar.
